# Entries after “also recorded” stand apart in the source; their conditions may differ. Read-outs that look alike come from different tables or passages of the source.
# Columns and labels:
# [1] = tested on: sigma receptor; experiment: (+)[3H]3-PPP saturation binding, guinea pig brain membranes
# Description: For radioreceptor assays aliquots of the frozen membrane suspension were thawed and diluted tenfold with 50 nM Tris/HCl buffer, pH 7.4. […] The protein concentration in the 1 ml final incubation volume was 800 ug, corresponding to 32 mg of brain tissue (original wet weight). […] After incubation for 90 minutes at room temperature the membrane suspension was rapidly filtered under vacuum through Whatman GF/B glass fiber filters using a Brandel 48 well cell harvester (Brandel, Gaithersburg, Md.). […] The filters were dissolved in 10 ml each of Cytoscint (Westchem Products, San Diego, Calif.) and radioactivity was measured by liquid scintillation spectrometry at a counting efficiency of 35-50%.
# [2] = target: sigma receptor; experiment: [3H]DTG displacement radioligand binding assay, guinea pig brain membranes
# [3] = target: sigma receptor (Cavia porcellus, UniProt Q60492); experiment: biochemical
# [4] = target: T1, sigma receptor from guinea pig brain (Cavia porcellus, UniProt Q60492); experiment: [3H]AZ-DTG binding and photoaffinity labeling of the sigma receptor; conditions: for effect on [3H]AZ-DTG labeling of the 29 kD polypeptide: 10 uM
# T1 construct: from tissue; host or cells: guinea pig brain membranes
# Description: (§1) The filters were then irradiated with long-wavelength UV light for a 15 minute period. Filter-bound proteins were solubilized with 50 mM Tris pH 7.4, 0.1% sodium dodecyl sulfate. Solubilized proteins were subjected to SDS-polyacrylamide gel electrophoresis.
# [5] = target: sigma receptor from guinea pig brain; experiment: as above; conditions: in the dark; brain membranes
# Description: as §1
# [6] = target: [3H]MK-801; experiment: [3H]MK-801 displacement binding; conditions: read-out: IC50 vs [3H]MK-801; Table II; ± s.e.m. (n)
# [7] = tested on: rats trained to discriminate cyclazocine; conditions: same concentrations; Holtzman, private communication; cited from earlier work
# [8] = tested on: PCP receptor; conditions: Tam, personal communication; cited from earlier work
# [9] = tested on: anxiety behavior of mice; experiment: black:white test box (light/dark exploration) of mice
# [10] = tested on: sigma receptor; experiment: [3H]DTG saturation binding / binding characteristics, guinea pig brain membranes; conditions: for binding to sigma receptor sites (words): guinea pig brain membrane homogenates and slide-mounted rat and guinea pig brain sections
# Description: Values obtained were the mean of quadruplicate determinations.
# Frozen guinea pig brains (Pel-Freeze, Rogers, Ariz.) were homogenized in 10 volumes (w/v) of 0.32M sucrose using a Polytron homogenizer. The homogenate was spun at 900×g for 10 minutes at 4° C. The supernatant was collected, and spun at 22,000×g for 20 minutes at 4° C. The pellet was resuspended in 10 volumes of 50 mM Tris/HCl buffer, pH 7.4, incubated at 37° C. for 30 minutes and spun again at 22,000×g for 20 minutes at 4° C. The pellet was then resuspended in 10 volumes of 50 mM Tris/HCl buffer, pH 7.4 and 10 ml aliquots of this membrane suspension were stored frozen at -70° C. until used in the binding assay.
# For radioreceptor assays aliquots of the frozen membrane suspension were thawed and diluted tenfold with […] Tris/HCl buffer, pH 7.4. […] The protein concentration in the 1 ml final incubation volume was 800 ug, corresponding to 32 mg of brain tissue (original wet weight). […] After incubation for 90 minutes at room temperature the membrane suspension was rapidly filtered under vacuum through Whatman GF/B glass fiber filters using a Brandel 48 well cell harvester (Brandel, Gaithersburg, Md.). The filters were washed with 3×5 ml ice-cold […] Tris buffer (pH 7.4 at room temperature). The filters were dissolved in 10 ml each of Cytoscint (Westchem Products, San Diego, Calif.) and radioactivity was measured by liquid scintillation spectrometry at a counting efficiency of 35-50%. Saturation data were evaluated by Scatchard analysis using both the EBDA NcPherson, G. A., Computer Programs Biomed.
# [11] = tested on: sigma site in brain sections; experiment: receptor autoradiography of [3H]DTG binding, brain sections; parameters: species or system guinea pig and rat; conditions: 2 nM [3H]DTG
# Description: Male Sprague Dawley rats (200-250 g) and NIH guinea pigs (300-350 g) were sacrificed, their brains rapidly removed and processed for receptor autoradiography according to the method of Herkenham et al. J. Neuroscience 2:1129-1149 (1982).
# Incubations were terminated by 4×2 minute washes in […] Tris-HCl (pH 7.4, 4° C.) with 1 mg/ml BSA, rapidly dried under a stream of cool air and placed in x-ray cassettes with ^3 H-sensitive film (^3 H-ultrofilm, LKB). Films were developed 6-8 weeks later (D-19, Kodak).
# [12] = tested on: social interaction of rats; experiment: rat social interaction test; format: in vivo, rat (male Hooded Lister); conditions: for time spent in social interaction: i.p., 10 min session, n=6, P<0.001
# Description: A second preferred animal model is the rat social interaction test described by Jones, B. J. et al., supra, wherein the time that two mice spend in social interaction is quantified. […] Both the familiarity and the light level of the test arena may be manipulated. Undrugged rats show the highest level of social interaction when the test arena is familiar and is lit by low light. Social interaction declines if the arena is unfamiliar to the rats or is lit by bright light. Anxiolytic agents prevent this decline. The overall level of motor activity may also be measured to allow detection of drug effects specific to social behaviors.
# Male Hooded Lister rats (Glaxo bred, 200-250 g), were housed 5 to a cage and were kept in the laboratory environment for at least a week before testing. Rats paired in the test were taken from separate cages.
# The test arena consisted of an open-topped box, 62×62×33 cm with a 7×7 matrix of infra-red photocell beams in the walls, 2.5 cm from the floor.
# Testing involved placing each member of a pair of rats in opposite comers of the arena and then leaving them undisturbed for 10 min. while recording their behavior remotely on videotape. The behavioral assessments were made subsequently from the recordings. The time spent in social interaction was measured and expressed as a cumulative total for the 10 min session. The behaviors that comprised social interaction were: following with contact, sniffing (but not sniffing of the hindquarters), crawling over and under, tumbling, boxing and grooming.
# [13] = tested on: anxiety behavior of mice; conditions: mouse, in vivo, ip, 10 mg/kg
# [14] = Example 25, guinea pig brain membrane homogenates, read-out: IC50 binding values
# [15] = list of especially preferred compounds, read-out: IC50 (high binding to the sigma receptor)
# [16] = read-out: IC50 vs [3H]DTG, Table II, ± s.e.m. (n)
# T1 sequence (Q60492 whole entry): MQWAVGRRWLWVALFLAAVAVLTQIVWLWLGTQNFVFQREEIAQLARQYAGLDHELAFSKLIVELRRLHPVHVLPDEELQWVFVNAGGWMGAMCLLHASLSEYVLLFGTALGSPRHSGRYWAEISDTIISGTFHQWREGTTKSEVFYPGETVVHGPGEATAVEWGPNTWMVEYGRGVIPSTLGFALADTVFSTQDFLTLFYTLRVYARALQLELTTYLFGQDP
# sigma receptor (Cavia porcellus, UniProt Q60492), sequence (Q60492 whole entry): as above
compound,measurement,setting,value
"CCCN1CCC[C@H](c2cccc(O)c2)C1 [(+)[^3 H]3-PPP, (+)[^3 H]3-(3-hydroxyphenyl)-N-(1-propyl)-piperidine]",Bmax,[1],80 pmol/g fresh brain weight
same,Kd,[1],30 nM
"CCCN1CCC[C@@H](c2cccc(O)c2)C1 [(-)3-PPP, reference compound]",IC50,[2]; [14],280 ± 21 nM
same,IC50,"[2]; read-out: IC50 vs. [3H]DTG, Table III, ± SEM, average from 2-4 separate experiments in triplicate",280 ± 21 nM
same,IC50,[3],235 nM
"NCCc1ccc(O)c(O)c1 [dopamine, reference compound]",displacement of [3H]DTG,[2],no significant displacement
same,effect on [3H]AZ-DTG labeling of the 29 kD polypeptide,[4],unaffected
"NCCCC(=O)O [GABA, γ-aminobutyric acid, reference compound]",displacement of [3H]DTG,[2]; 10 uM,no significant displacement
same,effect on [3H]AZ-DTG labeling of the 29 kD polypeptide,[4],unaffected
"CCCN1CCCC(c2cccc(O)c2)C1 (single isomer, unassigned; (+)) [(+)3-PPP, 3-(3-hydroxyphenyl)-N-(1-propyl)-piperidine, reference compound]",IC50,[3],33 ± 12 nM
same,effect on [3H]AZ-DTG labeling of the 29 kD polypeptide,[4],completely blocked
"Cc1ccccc1NC(=N)Nc1ccc(N=[N+]=[N-])cc1C [[^3 H]AZ--DTG, [^3 H]-m-azido-1,3-di-o-tolylguanidine]",Kd,[5],28 nM
same,size of polypeptide selectively labeled,[4]; fluorography of SDS-PAGE gels after UV irradiation,29 kD
N=C(Nc1ccc(F)cc1C(F)(F)F)NC12CC3CC(CC(C3)C1)C2 [N-(Adamantan-1-yl)-N'-(2-trifluoromethyl-4-fluorophenyl)guanidine],IC50,[2]; [15],4 nM
same,IC50,[2]; [16],4.27 nM
same,IC50,[6],31900 nM
"N=C(Nc1cccc2c1CCC2)Nc1cccc2c1CCC2 [N,N'-Di-(4-indanyl)-guanidine]",IC50,[2]; [15],28.5 nM
same,IC50,[2]; [16],28.5 nM
same,IC50,[6],506 nM
"N=C(Nc1ccccc1)Nc1ccccc1 [DPG, N,N'-di(phenyl)guanidine]",substitution for cyclazocine,[7],fully substitutable for cyclazocine
"N=C(Nc1ccc(F)cc1F)NC12CC3CC(CC(C3)C1)C2 [N-(Adamantan-1-yl)-N'-(2,4-difluorophenyl)guanidine]",IC50,[2]; [15],8.92 nM
same,IC50,[2]; [16],8.92 nM
same,IC50,[6],> 10000 nM
"Cc1ccccc1NC(=N)Nc1ccccc1C [DTG, N,N'-di-(2-methylphenyl)guanidine]",activity in [3H]-PCP binding assay,[8],virtually inactive
same,in vitro [3H]DTG displacement activity,[2],found to possess the aforesaid in vitro [^3 H]DTG displacement activity
same,substitution for cyclazocine,[7],fully substitutable for cyclazocine
same,anxiolytic activity,[9]; s.c.,does not exhibit anxiolytic activity
same,"rears, crossings, % time in the black compartment","[9]; s.c., concentrations tested",did not affect significantly
"NCCc1c[nH]c2ccc(O)cc12 [5-OH-tryptamine, reference compound]",displacement of [3H]DTG,[2]; 10 uM,no significant displacement
same,effect on [3H]AZ-DTG labeling of the 29 kD polypeptide,[4],unaffected
"[3H]c1ccc(NC(=N)Nc2ccc([3H])cc2C)c(C)c1 [[^3 H]DTG, N,N'-di-(4-[^3 H]-2-methylphenyl)-guanidine]",specific binding of total [3H]DTG binding,[2],> 90%
same,"specific binding, % of total binding",[10],90-97%
same,total binding,[10]; 0.9 nM [3H]DTG,2700 cpm
same,nonspecific binding,"[10]; 0.9 nM [3H]DTG, 10 uM DTG or 10 uM haloperidol",50-150 cpm
same,abolition of specific binding by boiling of membranes,[10]; 100° C. for 10 minutes prior to assay,90%
same,reversibility of binding,[10]; after addition of 10 uM unlabeled DTG,fully reversible
same,binding to sigma receptor sites (words),[10],"binds specifically and with high affinity to a single class of binding sites; also recorded: bound specifically, saturably, reversibly, and with high affinity"
same,binding to sigma receptor sites (words),[10]; listed as [^3 H]--DTG,"binds reversibly, saturably, selectively and with high affinity"
same,maximum number of binding sites (Bmax),[10]; original wet weight,85 pmol/g brain tissue
same,time to binding equilibrium,[10]; room temperature,60 to 90 min
same,distribution/density of [3H]DTG binding,[11],"low density of specific binding diffusely distributed throughout the gray matter; also recorded: heterogeneous distribution of enriched binding in limbic and sensorimotor structures; also recorded: Very dense binding was seen in the choroid plexus; also recorded: very dense binding was found in the subcommissural organ; also recorded: The oculomotor nucleus, and more caudally, the trochlear nucleus were very densely labeled; also recorded: In the hindbrain the locus coeruleus was the most densely labeled nucleus"
N=C(Nc1cccc2ccc(=O)oc12)NC12CC3CC(CC(C3)C1)C2 [N-(Adamantan-1-yl)-N'-(8-coumarinyl)-guanidine],IC50,[2]; [16],43.9 nM
same,IC50,[6],6700 nM
Cc1cc(Br)ccc1NC(=N)NC1CCCCC1 [N-Cyclohexyl-N'-(2-methyl-4-bromophenyl)guanidine],in vitro [3H]DTG displacement activity,[2],found to possess the aforesaid in vitro [^3 H]DTG displacement activity
same,IC50,[2]; [14],5.5 nM
same,IC50,[2]; [15],5.5 nM
same,IC50,[2]; [16],4.67 nM
same,IC50,[6],23900 nM
"Cc1ccccc1NC(=N)NC12CC3CC(CC(C3)C1)C2 [AdTG, N-(Adamantan-1-yl)-N'-(2-methylphenyl)guanidine]",in vitro [3H]DTG displacement activity,[2],found to possess the aforesaid in vitro [^3 H]DTG displacement activity
same,IC50,[2]; [14],7.6 ± 0.3 nM
same,IC50,[2]; [15],7.6 nM
same,IC50,"[2]; read-out: IC50, [3H]DTG displacement in guinea-pig brain homogenates, most potent, n=6",2.6 ± 0.6 nM
same,IC50,"[2]; read-out: IC50 vs [3H]DTG, Table I, guinea pig brain membranes",3 ± 1 nM
same,numbers of line crossings and/or rears in the light compartment (vs dark),[9]; oral,increased at the expense of those in the dark compartment
same,proportion of time in light area / percentage of time in black compartment,[9]; oral,"increased significantly the proportion of time the mice spent in the larger, lighted area"
same,anxiolytic activity,"[9]; oral, 1 mg/kg",have anxiolytic activity when orally administered
same,latency to entering the dark compartment,[9]; s.c.,increased in a dose-dependent manner
same,numbers of line crossings and/or rears in the light compartment (vs dark),[9]; s.c.,increased at the expense of those in the dark compartment
same,proportion of time spent in the lighted area,[9]; s.c.,"dose dependently increased the proportion of time the mice spent in the larger, lighted area"
same,sedation: total numbers of rears and line crossings,[9]; s.c.,did not decrease significantly showing that the drug was not sedative at this level
same,"dose giving about the same result, relative to diazepam",[12]; 0.1 mg/kg vs 1 mg/kg diazepam,about the same result at one-tenth the dose of diazepam
same,time spent in social interaction,[12],significantly increased social interactions
N=C(Nc1ccc2oc(=O)ccc2c1)NC12CC3CC(CC(C3)C1)C2 [N-(Adamantan-1-yl)-N'-(6-coumarinyl)-guanidine],IC50,[2]; [15],21.9 nM
same,IC50,[2]; [16],21.9 nM
same,IC50,[6],> 10000 nM
"CN1C(=O)CN=C(c2ccccc2)c2cc(Cl)ccc21 [diazepam, reference compound]",displacement of [3H]DTG,[2],no significant displacement
same,sedation: numbers of rears and line crossings,[13],decreased significantly showing that the drug was markedly sedative
same,numbers of line crossings and/or rears in the light compartment,"[9]; mouse, in vivo, ip",increased at the expense of those in the dark compartment
same,proportion of time in light area / percentage of time in black compartment,"[9]; mouse, in vivo, ip","dose-dependently increased the proportion of time the mice spent in the larger, lighted area"
same,time spent in social interaction,[12],significantly increased social interactions
N=C(Nc1ccccc1C(F)(F)F)NC12CC3CC(CC(C3)C1)C2 [N-(Adamantan-1-yl)-N'-(2-trifluoromethylphenyl)guanidine],IC50,[2]; [15],7.44 nM
same,IC50,[2]; [16],7.44 nM
same,IC50,[6],23100 nM

# Source: patent publication US5574070A, “Substituted guanidines having high binding to the sigma receptor and the use thereof” (priority 1993, dated 1996)
